The source of these data is patent publication US20050014845A1, “Ambroxol for the treatment of epilepsy” (Boehringer Ingelheim International GmbH, priority 2003, published 2005).

In one experiment the target is T1, human GluR1/2 receptors (Homo sapiens, UniProt P42261+P42262).
T1 construct: expressed in transfected cells; host or cells: HEK 293
In words: Patch-Clamp of glutamate-induced membrane currents in HEK 293 cells expressing GluR1/2. The class given is cell-based. Particulars: 1 mM glutamate for 1 s, holding potential −80 mV. As for the experimental part:
HEK 293 cells which expressed functionally recombinant human GluR1/2 receptors were electrophysiologically investigated by the Patch-Clamp method ([…]). The administration of 1 mM glutamate (for 1 s at a holding potential of −80 mV) induced membrane currents which were inhibited by the joint administration of ambroxol.
(The patch-clamp technique gives a direct electrical read-out from membranes.)

Experiment [1] concerns centrally expressed neuronal sodium channels. Particulars: neuronal sodium channel subtypes, read-out: half-maximal inhibition of centrally expressed channels; cited from earlier work.

T1 sequence (P42261 19-906): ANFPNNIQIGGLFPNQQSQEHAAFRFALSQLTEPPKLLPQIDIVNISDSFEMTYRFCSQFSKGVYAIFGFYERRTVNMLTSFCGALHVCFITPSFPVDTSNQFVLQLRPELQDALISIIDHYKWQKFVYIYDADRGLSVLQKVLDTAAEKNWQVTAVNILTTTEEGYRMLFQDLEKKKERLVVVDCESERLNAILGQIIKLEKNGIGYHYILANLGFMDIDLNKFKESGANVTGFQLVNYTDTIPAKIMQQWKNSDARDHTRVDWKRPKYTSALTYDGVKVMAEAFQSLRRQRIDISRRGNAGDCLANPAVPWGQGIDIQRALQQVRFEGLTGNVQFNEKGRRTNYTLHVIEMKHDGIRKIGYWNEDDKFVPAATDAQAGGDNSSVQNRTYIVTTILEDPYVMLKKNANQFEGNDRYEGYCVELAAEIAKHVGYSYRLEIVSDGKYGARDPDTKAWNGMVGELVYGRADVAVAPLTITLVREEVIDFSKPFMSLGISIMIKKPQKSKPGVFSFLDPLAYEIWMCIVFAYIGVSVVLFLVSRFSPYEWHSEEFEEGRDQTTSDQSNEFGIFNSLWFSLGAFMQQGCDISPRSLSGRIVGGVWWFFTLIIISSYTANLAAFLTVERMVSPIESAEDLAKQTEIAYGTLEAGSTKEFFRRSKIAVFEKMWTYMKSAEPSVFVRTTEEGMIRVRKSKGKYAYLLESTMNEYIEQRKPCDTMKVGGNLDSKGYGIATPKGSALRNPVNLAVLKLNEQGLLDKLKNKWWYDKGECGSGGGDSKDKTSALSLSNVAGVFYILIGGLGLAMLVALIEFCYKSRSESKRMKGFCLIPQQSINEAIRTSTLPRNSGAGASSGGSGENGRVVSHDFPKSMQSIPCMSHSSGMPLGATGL
T1 sequence (P42262 22-883 limits assumed): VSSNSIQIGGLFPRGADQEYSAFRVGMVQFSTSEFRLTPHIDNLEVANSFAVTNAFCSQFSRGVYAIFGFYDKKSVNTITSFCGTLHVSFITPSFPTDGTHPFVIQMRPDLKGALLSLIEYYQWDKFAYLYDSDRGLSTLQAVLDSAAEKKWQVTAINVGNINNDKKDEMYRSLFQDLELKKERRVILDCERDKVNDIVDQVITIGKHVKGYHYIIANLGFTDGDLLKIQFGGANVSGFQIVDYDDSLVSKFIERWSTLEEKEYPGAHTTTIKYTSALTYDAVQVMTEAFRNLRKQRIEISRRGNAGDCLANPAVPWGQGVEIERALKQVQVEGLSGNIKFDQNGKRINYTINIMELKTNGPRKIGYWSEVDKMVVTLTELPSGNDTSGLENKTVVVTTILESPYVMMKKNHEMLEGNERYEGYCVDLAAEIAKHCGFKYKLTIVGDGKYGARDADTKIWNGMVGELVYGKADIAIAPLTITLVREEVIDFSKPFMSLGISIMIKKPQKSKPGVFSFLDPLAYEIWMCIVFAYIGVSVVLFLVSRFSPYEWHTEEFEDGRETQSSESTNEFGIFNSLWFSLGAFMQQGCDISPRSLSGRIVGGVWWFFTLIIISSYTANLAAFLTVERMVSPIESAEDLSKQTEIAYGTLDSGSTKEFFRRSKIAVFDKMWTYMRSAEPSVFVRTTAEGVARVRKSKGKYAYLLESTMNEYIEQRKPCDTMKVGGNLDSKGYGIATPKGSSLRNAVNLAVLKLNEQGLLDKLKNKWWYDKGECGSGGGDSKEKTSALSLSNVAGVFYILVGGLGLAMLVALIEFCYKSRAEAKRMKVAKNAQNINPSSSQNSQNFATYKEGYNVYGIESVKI

On to `Nc1c(Br)cc(Br)cc1CN[C@H]1CC[C@H](O)CC1` [ambroxol, trans-4-(2-amino-3,5-dibromobenzylamino)cyclohexanol], for which the “concentrations inhibiting glutamate-induced membrane currents” value at human GluR1/2 receptors was in the range of 30 to 1000 µM. In addition, the IC50 in experiment [1] was 111 µM.
